# Experimental data as given in patent US5013743A, “Selective antibacterial agent against campytobacter” (Takeda Chemical Industries, Ltd., priority 1989, dated 1991).
# Key:
# [1] = tested on: C. pylori CLO 1; test: MIC, agar-plate dilution method, test strain F; type: cell-based; conditions: Helicobacter pylori, CLO1, 72 h, Brucella agar, 37° C., 3 days
# Method: (§1) The minimum inhibitory concentration (MIC) of each compound was determined by the agar-plate dilution method based on the standard method advocated by Japan Society of Chemotherapy [cf: Chemotherapy, Jan. '81, p. 76]. The volume of agar medium per plate was 20 ml. Each of the test compounds was dissolved in dimethylsulfoxide at a concentration of 80 mg/ml or 40 mg/ml, and diluted 10 times with sterile distilled water. Furthermore, the aqueous solution of 8 mg/ml or 4 mg/ml was diluted serially 2-fold with sterile distilled water. To 2 ml of the diluted solution was added 18 ml of Brucella agar (BBL Microbiology Systems, Becton Dickinson and Co., Cockeysville, Md. 21030) containing 7% defibrinated horse blood (manufactured by Nippon Bio-supp. Center) and mixed well. Test strains frozen at -80° C. in Brucella broth (BBL) containing 10% horse serum were thawed and inoculated on a Brucella agar slant medium containing 7% defibrinated horse blood. The medium was incubated anaerobically at 37° C. for 3 days in a jar containing a piece of sponge sufficiently impregnated with water and Campy Pak™ (BBL). The organisms grown on the slant medium were collected and suspended in a Brucella broth to correspond to the turbidity of about 10^8 CFU/ml of common bacteria. One platinum loop of inoculum was streaked on the medium plates for determination. The plates were incubated under the same conditions as described above.
# [2] = tested on: A. calcoaceticus IFO 13006; test: MIC, standard agar-plate dilution method, aerobic common bacteria; type: cell-based; conditions: Acinetobacter calcoaceticus, IFO13006
# Text: (§2) Antibacterial activities of some compounds of the present invention against aerobic common bacteria were examined.
# [3] = tested on: C. freundii IFO 12681; test: as above; type: cell-based; conditions: Citrobacter freundii, IFO12681
# Text: as §2
# [4] = tested on: E. cloacae IFO 12937; test: as above; type: cell-based; conditions: Enterobacter cloacae, IFO12937
# Text: as §2
# [5] = tested on: E. cloacae TN 583; test: as above; type: cell-based; conditions: Enterobacter cloacae, TN583
# Text: as §2
# [6] = tested on: P. aeruginosa P 9; test: as above; type: cell-based; conditions: Pseudomonas aeruginosa, P9
# Text: as §2
# [7] = tested on: P. vulgaris IFO 3988; test: as above; type: cell-based; conditions: Proteus vulgaris, IFO3988
# Text: as §2
# [8] = tested on: S. aureus 1840; test: as above; type: cell-based; conditions: Staphylococcus aureus
# Text: as §2
# [9] = tested on: S. aureus FDA 209P; test: as above; type: cell-based; conditions: Staphylococcus aureus, FDA209P
# Text: as §2
# [10] = tested on: S. mitis America; test: as above; type: cell-based; conditions: Streptococcus mitis
# Text: as §2
# [11] = tested on: S. pneumoniae Type 1; test: as above; type: cell-based; conditions: Streptococcus pneumoniae, TYPE1
# Text: as §2
# [12] = tested on: S. pyogenes E-14; test: as above; type: cell-based; conditions: Streptococcus pyogenes, E14
# Text: as §2
# [13] = tested on: S. pyogenes S-8; test: as above; type: cell-based; conditions: Streptococcus pyogenes, S8
# Text: as §2
# [14] = tested on: genus Campylobacter; test: Antibacterial activity against the genus Campylobacter (Tables 2 and 3, summary in words); type: cell-based, Campylobacter pylori; conditions: fluorinated alkyl derivatives vs other derivatives, Table 2 and Table 3
# Method: as §1
# [15] = tested on: aerobic bacteria; test: Antibacterial action against aerobic bacteria (Table 4, summary in words); type: cell-based; conditions: summary of Table 4
# Text: as §2
# [16] = Inspection of lyophilized compound (1) for solubility, appearance and content immediately after dissolution; type: physicochemical; conditions: for Appearance / Clarity / Content: after dissolution; for Content: taken as 100.0% (HPLC)
# Method: (§3) The resulting filtrate was filled in 1 ml portions into vials of a 12 cm^3 capacity, followed by lyophilization by means of the conventional technique.
# (§4) *As measured by use of highperformance liquid chromatography (HPLC),
# (§5) whereby the content determined immediately after preparation was taken as
# (§6) Chromatographic conditions of HPLC:
# (§7) Nucleosil 5 C18 (supplied by GasChro Kogyo K.K. of Japan) 4.0 mm
# (§8) Methanol:water:triethylamine (60:40:1, pH 7)
# (§9) UV spectrophotometry at 285 mm
# [17] = Stability of the lyophilized compound (1) after being dissolved in vials, storage for 24 hours; type: physicochemical
# Method: as §3, §4, §5, §6, §7, §8, §9
# [18] = type: in vivo; conditions: oral, mice, 200 mg/kg
compound,measurement,setting,value
Cc1c(OCC(F)(F)F)ccnc1C[S+]([O-])c1nc2ccccc2[nH]1 (stereo not drawn) [Compound 1],MIC,[1],6.25 µg/mL
same,MIC,[2],> 400 µg/mL
same,MIC,[3],> 400 µg/mL
same,MIC,[4],> 400 µg/mL
same,MIC,[5],> 400 µg/mL
same,MIC,[6],> 400 µg/mL
same,MIC,[7],> 400 µg/mL
same,MIC,[8],> 400 µg/mL
same,MIC,[9],> 400 µg/mL
same,MIC,[10],> 400 µg/mL
same,MIC,[11],> 400 µg/mL
same,MIC,[12],> 400 µg/mL
same,MIC,[13],> 400 µg/mL
same,antibacterial activity compared with other derivatives,[14],stronger antibacterial activity
same,antibacterial action against the aerobic bacteria,[15],did not possess at all antibacterial action
same,pH after dissolution,[16]; Solvent A,8.7
same,Solubility,"[16]; Solvent A (N-methylglucamine, HCl, propylene glycol, ethanol)",Good
same,pH after dissolution,[16]; Solvent B,9.0
same,Solubility,"[16]; Solvent B (N-methylglucamine, HCl, polyethylene glycol 400, ethanol, water)",Good
same,pH after dissolution,[16]; Solvent C,9.0
same,Solubility,"[16]; Solvent C (N-methylglucamine, HCl, ethanol, propylene glycol, water)",Good
same,pH after dissolution,[16]; Solvent D,9.0
same,Solubility,"[16]; Solvent D (N-methylglucamine, HCl, polyethylene glycol 400, water)",Good
same,dissolution speed,[16]; Solvents A to D,dissolved quickly
same,solubilities of the lyophilized powder in all of these solvents,[16]; Solvents A to D,excellent solubilities
same,Appearance,[16]; Solvent A,Colorless
same,Clarity,[16]; Solvent A,Clear
same,Content,[16]; Solvent A,100%
same,Appearance,[16]; Solvent B,Colorless
same,Clarity,[16]; Solvent B,Clear
same,Content,[16]; Solvent B,100%
same,Appearance,[16]; Solvent C,Colorless
same,Clarity,[16]; Solvent C,Clear
same,Content,[16]; Solvent C,100%
same,Appearance,[16]; Solvent D,Colorless
same,Clarity,[16]; Solvent D,Clear
same,Content,[16]; Solvent D,100%
same,change in content of compound (1),"[17]; Solvents A to D, 24 hours",decrease slightly
same,change in the stage of solution,"[17]; Solvents A to D, 24 hours",no change in the stage of solution
same,Clarity,"[17]; after storage at 5° C. for 24 hrs., Solvent A",Clear
same,Clarity,"[17]; after storage at 5° C. for 24 hrs., Solvent B",Clear
same,Clarity,"[17]; after storage at 5° C. for 24 hrs., Solvent C",Clear
same,Clarity,"[17]; after storage at 5° C. for 24 hrs., Solvent D",Clear
same,Appearance,"[17]; after storage at 5° C. for 24 hrs., Solvents A to D",Slightly to lightly green-yellow
same,changes in appearance,[17]; immediately after dissolution and after storage for 24 hours,slight changes in appearance
COc1ccc2[nH]c([S+]([O-])Cc3ncc(C)c(OC)c3C)nc2c1 (stereo not drawn) [Compound 2],MIC,[1],25 µg/mL
same,MIC,[2],> 400 µg/mL
same,MIC,[3],> 400 µg/mL
same,MIC,[4],> 400 µg/mL
same,MIC,[5],> 400 µg/mL
same,MIC,[6],> 400 µg/mL
same,MIC,[7],> 400 µg/mL
same,MIC,[8],> 400 µg/mL
same,MIC,[9],> 400 µg/mL
same,MIC,[10],> 400 µg/mL
same,MIC,[11],> 400 µg/mL
same,MIC,[12],> 400 µg/mL
same,MIC,[13],> 400 µg/mL
same,antibacterial action against the aerobic bacteria,[15],did not possess at all antibacterial action
Cc1c(OCC(F)(F)F)ccnc1CSc1nc2ccccc2[nH]1 [Compound 6],MIC,[1],25 µg/mL
same,MIC,[2],> 400 µg/mL
same,MIC,[3],> 400 µg/mL
same,MIC,[4],> 400 µg/mL
same,MIC,[5],> 400 µg/mL
same,MIC,[6],> 400 µg/mL
same,MIC,[7],> 400 µg/mL
same,MIC,[8],> 400 µg/mL
same,MIC,[9],> 400 µg/mL
same,MIC,[10],> 400 µg/mL
same,MIC,[11],> 400 µg/mL
same,MIC,[12],> 400 µg/mL
same,MIC,[13],> 400 µg/mL
same,antibacterial activity compared with other derivatives,[14],stronger antibacterial activity
same,antibacterial action against the aerobic bacteria,[15],did not possess at all antibacterial action
same,dead animals,[18],no dead animals
